Measured values reported in paper PMC2936744 (PLoS Pathogens, 2010).
Like-named read-outs stand apart in the source and are kept apart here.

Assays:
[1] = tested on: HCVcc-1b/2a; type: cell-based, hepatitis C virus
[2] = tested on: HCV entry; type: cell-based, hepatitis C virus
[3] = tested on: HCVpp-1b; experiment: Inhibitor time-of-addition / attachment vs post-attachment assay, Huh-H1 cells
Procedure: Huh-H1 cells were seeded at 5×10^3 cells/well in 96-well plates. The following day the plates were chilled to 4°C and the media was removed and replaced with HCVpp inoculum in a volume of 50 µl. Plates were incubated at 4°C for 1.5 hr on a rocking platform. The inoculum was removed and unbound virus was removed by 2 washes with 4°C media. Fresh media was added and the plates were shifted to a 37°C incubator. […] At 3 days post infection, firefly luciferase activity was quantified using the Steady-Glo Reagent (Promega) according to the manufacturer's instructions. Experiments were done in triplicate and the mean % inhibition was calculated relative to control infections lacking inhibitor.

[4] = tested on: HCVcc-1a/2a-Rluc; type: cell-based, hepatitis C virus; conditions: mean of 8 independent experiments
[5] = tested on: VSVpp; experiment: microbe, parasite or virus in culture; type: cell-based; conditions: Vesicular stomatitis virus, Huh-H1, read-out: EC50 VSVpp
[6] = tested on: HCVcc-2a/2a-Rluc; type: cell-based
[7] = type: cell-based; conditions: human, Huh-7.5 cells
[8] = tested on: HCVcc-1a/2a; conditions: 0.5 µM EI-1 in agarose overlay
Procedure: An assay incorporating a semisolid medium was used to access cell-to-cell spread as described [57]. HCVcc-1a/c2a was added to 1.6×10^4 Huh-7.5 cells at 0.001 ffu/cell incubated at 37°C. […] Cells were incubated at 37°C for 2, 3 or 4 days at which time the agarose was removed and the infected cells were detected using indirect immunofluorescence for the HCV core protein as described above. The mean number of infected cells/ffu was determined from ≥100 foci for each data point.

[9] = in vitro; conditions: bovine
Procedure: (§1) In addition, compound-induced cytotoxicity in each cell line used for the infection assays was measured.

[10] = in vitro; conditions: dog
Procedure: as §1

[11] = in vitro; conditions: human
Procedure: as §1

[12] = tested on: BVDV; experiment: microbe, parasite or virus in culture; conditions: Bovine viral diarrhea virus isolates and strains, read-out: EC50 BVDV
Procedure: (§2) BVDV cell protection assays were performed essentially as described [54] by infecting MDBK cells with 0.1 pfu/cell of BVDV strain NADL. Infected cells were incubated at 37°C for 3 days and virus-induced cytopathicity was measured using the Cell Titer-Glo reagent (Promega). HIV assays were performed as described [55] by infecting MT2 cells with 0.05 pfu/cell of the NL4-3 strain of HIV (NIH Research and Reference Reagent Program) containing the Renilla luciferase gene (NL-Rluc) in the Nef locus. Infected cells were incubated at 37°C for 5 days and virus replication was measured by reverse transcriptase assay using a scintillation proximity assay as described [55].

[13] = tested on: HIV; experiment: microbe, parasite or virus in culture; conditions: Human immunodeficiency virus 1, MT2, read-out: EC50 HIV
Procedure: as §2

## COC(=O)N[C@H](C(=O)N1CCC[C@H]1c1nc(-c2ccc(-c3ccc(-c4c[nH]c([C@@H]5CCCN5C(=O)[C@@H](NC(=O)OC)C(C)C)n4)cc3)cc2)c[nH]1)C(C)C [BMS-790052, reference compound]
[1]
  virus release, inhibitor added 5 hours post infection (post entry; in words): prevented virus release

## CCCCCCCCO[C@@H]1O[C@H](CO)[C@@H](O)[C@H](O)[C@H]1O [β-OG, n-octyl-β-D-glucoside]
[2]
  inhibition of HCV entry (in words): did not inhibit

## CO/C1=C\C(C)=C\[C@@H](C)[C@@H](O)[C@@H](C)C/C(C)=C/C=C/[C@H](OC)[C@@H]([C@@H](C)[C@@H](O)[C@H](C)[C@@]2(O)C[C@@H](O)[C@H](C)[C@@H](C(C)C)O2)OC1=O [bafilomycin, bafilomycin A1, reference compound]
[3]; 10 nM bafilomycin A1
  time after the 37°C temperature shift at which sensitivity to the inhibitor was lost: ≥ 3 h
[3]; heparin 200 µg/ml, anti-CD81 monoclonal antibody 2 µg/ml, bafilomycin A1 10 nM
  stage of entry at which the control inhibitor is effective (in words): only effective during the post-attachment stage

## C=C[C@@H]1C[C@]1(NC(=O)[C@@H]1C[C@@H](Oc2nccc3cc(OC)ccc23)CN1C(=O)[C@@H](NC(=O)OC(C)(C)C)C(C)(C)C)C(=O)NS(=O)(=O)C1CC1 [BMS-605339]
[4]
  EC50: 0.123 µM

## CCCCCNc1nc(Nc2ccc([N+](=O)[O-])cc2)nc(OCC(F)(F)F)n1 [EI-1, N ^2-(4-nitrophenyl)-N ^4-pentyl-6-(2,2,2-trifluoroethoxy)-1,3,5-triazine-2,4-diamine]
[5]
  EC50: 33 µM
[6]
  activity against genotype 2a/2a chimeric virus (in words): not active
[7]
  CC50: > 50 µM
[1]
  progeny virus release, inhibitor present during entry (in words): dose-dependent reduction
  virus release, inhibitor added 5 hours post infection (post entry; in words): did not affect the levels of virion particles or infectious virus produced
[8]
  cell-to-cell transmission (in words): abrogated
[9]
  CC50: > 50 µM
[10]
  CC50: > 50 µM
[11]
  CC50: > 50 µM
[12]
  EC50: > 50 µM
[13]
  EC50: 23.4 µM
[3]; 0.125 µM EI-1
  effect on the attachment of HCVpp to HSPGs (inhibitor during 4°C step only; in words): little effect
[3]; 0.125 µM EI-1 added at intervals after 37°C shift
  time of infection within which inhibition is exerted: ≤ 3 h
[3]; Hepatitis C virus, Huh-H1, read-out: inhibition when inhibitor present during the 37°C phase only (post-attachment)
  inhibition at 0.125 µM: > 90%
